Entries after “also recorded” stand apart in the source; their conditions may differ. Where two headings read alike, the source gives them in different places. Values belong to the molecule of their own block, whether it stands above or below them.
Legend:
[1] = test system: HIV envelope gp120/41-induced syncytia formation in CD4+T cell lines (HIVenv 2-8 co-culture); assay: Inhibition of HIVenv 2-8-induced syncytia formation / cell death (HIV-1 co-culture assay); format: cell-based; conditions: for Estimated IC50 (Syncitia Quantification), inhibition of HIV-induced cytopathicity: Table 1
Procedure: Sourcing of Ah Receptor Ligands: The Ah receptor ligands 2,3,7,8-Tetrachlorodibenzo-p-dioxin, 3,3',4,4',5-Pentachlorobiphenyl, 3,3',4,'4-Tetrachlorobiphenyl, and 2-Monochlorodibenzo-p-dioxin compounds were purchased from Accustandard (Cambridge, Mass.). α-naphthoflavone was purchased from Sigma (St. Louis, Mo.). Stock solutions of each compound were prepared by dissolution in DMSO at a 1000X concentration, i.e. the highest concentration tested was diluted by 1000-fold.
Bioassay Procedure: The cell lines utilized in the assay protocol include the following: HIVenv 2-2 (non-cytopathic), HIVenv 2-8 (cytopathic), Jurkat CD4+T cell line (clone E6-1), and SupT1. Cell lines were cultured in RPMI medium (Gibco, Grand Island, N.Y.) supplemented with L-glutamine (Sigma, St. Louis, Mo.) and 10% FBS-HI (Intergen). The Jurkat CD4+T cell line was obtained from American Type Culture Collection (Bethesda, Md.). All other cell lines were obtained from the National Institutes of Health. The HIVenv 2-2 or HIVenv 2-8 cells were plated with both CD4+T cell lines (1×10^3 cells per cell line in 16 μL of media.) in a 96-well tissue culture plate containing 50 μL of media with compound to be tested yielding a final volume of approximately 100 μL. The plates were then gently shaken to ensure adequate mixing of the assay components. Cells were then co-cultured at 5% CO2, 37C., and 95% humidity for 24 to 48 hours. The time points were chosen for the convenience, cytopathic changes become evident in the cell cultures used within a 2 to 4 hour period, becoming more and more prominent with time.
Data Reduction for this ELISA: HIVenv 2-2 co-culture ELISA values are used as the background for HIVenv 2-8 co-culture values. Dose responses are then plotted with dose along the x-axis and the background corrected optical density values on the y-axis.
Positive and Negative Controls: The use of the HIVenv 2-2 cell line serves as a negative control for induction of cytopathicity.
(§1) Interpretation of the Test: A positive response was defined as a dose-related decrease in syncytia formation in excess of 50% compared to HIVenv 2-8 co-cultures alone. Calculation of median effective doses was estimated by visual observation and by quantification of syncitia in 10X power microscope fields.
The Materials and Methods used in the testing of the various dibenzofuran compounds were the same as those used in Example 1 above. This includes the use of the same controls, cell lines, and assay procedures.
as §1, with “fields. Another procedure which provides data similar to the Bioassay procedure just described allows for quantification of changes in the co-culture cells through an ELISA method, not as reliant on visual observation. […]” for “fields.”

Ah receptor [2] = biological target: T1, Ah receptor (Cavia porcellus, UniProt Q6J287); assay: Ah receptor transformation, agonist test (Ah-immunoassay, absence of TCDD); format: biochemical, Guinea pig; conditions: absence of TCDD
T1 sequence (Q6J287 1-846): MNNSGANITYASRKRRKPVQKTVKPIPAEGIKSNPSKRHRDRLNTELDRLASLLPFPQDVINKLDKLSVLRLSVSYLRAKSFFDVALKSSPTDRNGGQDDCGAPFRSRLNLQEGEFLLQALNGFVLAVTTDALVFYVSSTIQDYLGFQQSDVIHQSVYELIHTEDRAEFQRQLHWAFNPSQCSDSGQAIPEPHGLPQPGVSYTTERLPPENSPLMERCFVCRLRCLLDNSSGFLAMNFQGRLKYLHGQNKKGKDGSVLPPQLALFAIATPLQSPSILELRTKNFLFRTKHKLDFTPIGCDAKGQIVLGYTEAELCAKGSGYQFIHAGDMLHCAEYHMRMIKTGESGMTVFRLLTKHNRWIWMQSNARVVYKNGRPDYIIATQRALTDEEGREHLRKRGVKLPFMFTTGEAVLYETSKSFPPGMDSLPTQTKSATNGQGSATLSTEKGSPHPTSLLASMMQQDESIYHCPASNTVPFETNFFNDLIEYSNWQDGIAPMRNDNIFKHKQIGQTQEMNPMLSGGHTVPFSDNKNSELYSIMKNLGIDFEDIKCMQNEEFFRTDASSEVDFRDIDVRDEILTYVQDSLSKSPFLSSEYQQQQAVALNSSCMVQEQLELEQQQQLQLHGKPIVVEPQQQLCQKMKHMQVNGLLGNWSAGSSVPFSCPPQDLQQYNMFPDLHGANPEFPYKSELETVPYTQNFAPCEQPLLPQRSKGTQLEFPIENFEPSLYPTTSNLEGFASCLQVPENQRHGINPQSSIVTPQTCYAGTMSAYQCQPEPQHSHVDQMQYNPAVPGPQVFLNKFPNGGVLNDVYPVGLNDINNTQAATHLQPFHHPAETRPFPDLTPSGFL
Procedure: Cytosol was prepared as described above.
Diluent for TCDD dose response, diluent for extracts (detection of agonists), and negative control: The cytosol is treated with 1 μL DMSO per 1 mL cytosol (-).
1 nM TCDD treated, positive control. […] DMSO diluent for detection of agonists: the cytosol is treated with μL DMSO per 1 mL cytosol. (1 nm final concentration of TCDD).

Ah receptor [3] = biological target: T1, Ah receptor; assay: Inhibition of Ah receptor transformation, antagonist test (Ah-immunoassay, 0.5 nM TCDD); conditions: for Test as antagonist, Milli O.D at 405: 0.5 nM TCDD; for binding or interaction with the Ah receptor (words): with and without 0.5 nM TCDD
Procedure: Cytosol was prepared as described in methods and treated with TCDD, DMSO or TCM extract to make 1) 0.5 nM TCDD, 2) 0.1% DMSO, or 3) 500 μg/mL TCM extract, respectively. The treated cytosol was serially diluted in a neutravidin-coated ELISA plate (Pierce, Rockford, Ill.). […] To treat for Ah receptor agonist activity, extracts were diluted in 0.5 nM TCDD treated cytosol to 250, 125, and 62.5 μg/mL of TCM extracts.
Ten mL aliquots of cytosol were thawed and pooled, generally 20 mL per ELISA plate. For each 20 mL of cytosol, 10 μL of thawed DRE stock and 1 mL HEDG in 4M NaCl were added.
0.5 nM TCDD Diluent for extracts (detection of antagonists): The cytosol is treated with 1 μl of 1 μM TCDD per 2 mL cytosol (0.5 nm).
500 μg/mL extracts (detection of antagonists): 1 μL of test extract (500 mg/mL in DMSO) in 1 mL 0.5 nM TCDD-treated cytosol (500 μg/mL final concentration of extract in cytosol).
Serial dilution's of the extracts and/or TCDD treated cytosol into DMSO-treated cytosol are done as required by the experiment and are described in the examples.
The ELISA plate containing the treated cytosol is incubated with gentle rocking for 2 hours at 30° C. to allow the transformation of Ah receptor, binding of Ah receptor with ARNT, and binding of the Ah receptor/ARNT complex to the biotinylated DRE, and binding of the biotinylated DRE to the neutravidin bound to the ELISA plate.
After 2 hours the plate is washed 3 times with 400 μL TBS plus 0.02% Tween 20 per well per wash and 200 μL of the working dilution of anti-ARNT added to all wells. The plate is again incubated with gentle rocking at 30° C. for 1 hour. After 1 hour the plate is washed as before and a working dilution (1:4000) of anti-rabbit/alkaline phosphatase conjugate is added to all wells. The plate is incubated for a further 1 hour at 30° C. with gentle rocking and then washed as before. PNPP stock is added to each well (200 μL) and the plate is incubated for 1 hour at 30° C., at which time it is read at 405 nm in an ELISA plate reader and the milli O.D.'s of the wells are recorded.
TCM extracts were tested for their ability to inhibit the transformation of the Ah receptor.

[4] = test system: HIV; viruses; tumors; liver; conditions: cited from earlier work

SMILES: Clc1cc2c(cc1Cl)Oc1c(Cl)c(Cl)c(Cl)c(Cl)c1O2 [1,2,3,4,7,8-HCDD]
Estimated IC50 (Syncitia Quantification), inhibition of HIV-induced cytopathicity [1]: No Inhibition Observed

SMILES: Cc1cc(Cl)cc2c1oc1cc(Cl)cc(Br)c12 [1-bromo,6-methyl,3,8-dichlorodibenzofuran]
inhibition of syncytia formation / cytopathicity [1]: most effective compound and strongest Ah receptor antagonist | Estimated IC50 (Syncitia Quantification), inhibition of HIV-induced cytopathicity [1]: 100 nM

SMILES: Clc1cc2oc3cc(Cl)c(Cl)cc3c2cc1Cl [2,3,7,8-TCDF]
Estimated IC50 (Syncitia Quantification), inhibition of HIV-induced cytopathicity [1]: 80 nM

SMILES: Clc1ccc(-c2cc(Cl)c(Cl)c(Cl)c2)cc1Cl [3,3',4,4',5-PCB, 3,3',4,4',5-pentachlorobiphenyl]
inhibition of syncytia formation / cytopathicity [1]: correspondingly weaker activity | Estimated IC50 (Syncitia Quantification), inhibition of HIV-induced cytopathicity [1]: 100 nM

SMILES: Clc1ccc(-c2ccc(Cl)c(Cl)c2)cc1Cl [3,3',4,4'-TCB, 3,3',4,4'-tetrachlorobiphenyl]
inhibition of syncytia formation / cytopathicity [1]: correspondingly weaker activity | Estimated IC50 (Syncitia Quantification), inhibition of HIV-induced cytopathicity [1]: 35 nM

SMILES: CCCCc1cc(Cl)cc2c1oc1cc(Cl)cc(Cl)c12 [6-butyl,1,3,8-trichlorodibenzofuran]
Estimated IC50 (Syncitia Quantification), inhibition of HIV-induced cytopathicity [1]: 1500 nM

SMILES: Clc1cc(Cl)c2c(c1)oc1c(C3CCCCC3)cc(Cl)cc12 [6-cyclohexyl,1,3,8-trichlorodibenzofuran]
Estimated IC50 (Syncitia Quantification), inhibition of HIV-induced cytopathicity [1]: 500 nM

SMILES: CCc1cc(Cl)cc2c1oc1cc(Cl)cc(Cl)c12 [6-ethyl,1,3,8-trichlorodibenzofuran]
Estimated IC50 (Syncitia Quantification), inhibition of HIV-induced cytopathicity [1]: 1000 nM

SMILES: CC(C)c1cc(Cl)cc2c1oc1cc(Cl)cc(Cl)c12 [6-isopropyl,1,3,8-trichlorodibenzofuran]
inhibition of syncytia formation / cytopathicity [1]: slightly less antagonistic activity | Estimated IC50 (Syncitia Quantification), inhibition of HIV-induced cytopathicity [1]: 100 nM

SMILES: Cc1cc(Cl)cc2c1oc1cc(Cl)cc(Cl)c12 [6-methyl,1,3,8-trichlorodibenzofuran]
Estimated IC50 (Syncitia Quantification), inhibition of HIV-induced cytopathicity [1]: 200 nM

SMILES: O=[N+]([O-])c1cc(Cl)cc2c1oc1cc(Cl)cc(Cl)c12 [6-nitro 1,3,8-trichlorodibenzofuran]
inhibition of syncytia formation / cytopathicity [1]: slightly less antagonistic activity | Estimated IC50 (Syncitia Quantification), inhibition of HIV-induced cytopathicity [1]: 500 nM

SMILES: CCCc1cc(Cl)cc2c1oc1cc(Cl)cc(Cl)c12 [6-propyl,1,3,8-trichlorodibenzofuran]
Estimated IC50 (Syncitia Quantification), inhibition of HIV-induced cytopathicity [1]: 500 nM

SMILES: CC(C)(C)c1cc(Cl)cc2c1oc1cc(Cl)cc(Cl)c12 [6-t-butyl,1,3,8-trichlorodibenzofuran]
Estimated IC50 (Syncitia Quantification), inhibition of HIV-induced cytopathicity [1]: 1500 nM

Test as agonist, Milli O.D at 405 (Ah receptor [2]; Table 11, 0.313 μg/mL): 49.5 Milli O.D | Test as agonist, Milli O.D at 405 (Ah receptor [2]; Table 11, 0.625 μg/mL): 43 Milli O.D | Test as agonist, Milli O.D at 405 (Ah receptor [2]; Table 11, 1.25 μg/mL): 59.5 Milli O.D | Test as agonist, Milli O.D at 405 (Ah receptor [2]; Table 11, 2.5 μg/mL): 54.5 Milli O.D | Test as agonist, Milli O.D at 405 (Ah receptor [2]; Table 11, 5 μg/mL): 55 Milli O.D | Test as agonist, Milli O.D at 405 (Ah receptor [2]; Table 11, 10 μg/mL): 47 Milli O.D | Test as antagonist, Milli O.D at 405 (Ah receptor [3]; Table 11, 0.313 μg/mL): 1457 Milli O.D | Test as antagonist, Milli O.D at 405 (Ah receptor [3]; Table 11, 0.625 μg/mL): 1402 Milli O.D | Test as antagonist, Milli O.D at 405 (Ah receptor [3]; Table 11, 1.25 μg/mL): 1437 Milli O.D | Test as antagonist, Milli O.D at 405 (Ah receptor [3]; Table 11, 2.5 μg/mL): 1416 Milli O.D | Test as antagonist, Milli O.D at 405 (Ah receptor [3]; Table 11, 5 μg/mL): 1421 Milli O.D | Test as antagonist, Milli O.D at 405 (Ah receptor [3]; Table 11, 10 μg/mL): 1164 Milli O.D
SMILES: C=C1CC[C@@H]2[C@](C)(CO)[C@H](O)CC[C@@]2(C)[C@@H]1C/C=C1/C(=O)OC[C@H]1O [Andrographolide, andrographolide]
binding or interaction with the Ah receptor (words) (Ah receptor [3]): does not interact or inhibit the Ah receptor | binding or interaction with the Ah receptor (words) (Ah receptor [3]; listed as andrographolide): does not bind the Ah receptor; also recorded: non-Ah receptor binding | pharmacological activity (words) [4]: anti-tumor activity | pharmacological activity (words) ([4]; listed as andrographolide): anti-HIV effects; also recorded: anti-viral, anti-neoplastic and hepatoprotective properties

SMILES: Clc1ccc2c(c1)Oc1ccccc1O2 [Extract 2-MCDD, 2-Monochlorodibenzo-p-dioxin]
inhibition of syncytia formation / cytopathicity [1]: incapable of blocking the cytopathic effect | Estimated IC50 (Syncitia Quantification), inhibition of HIV-induced cytopathicity [1]: No Inhibition Observed

Test as agonist, Milli O.D at 405 (Ah receptor [2]; Table 11, 0.313 μg/mL): 48 Milli O.D | Test as agonist, Milli O.D at 405 (Ah receptor [2]; Table 11, 0.625 μg/mL): 19.5 Milli O.D | Test as agonist, Milli O.D at 405 (Ah receptor [2]; Table 11, 1.25 μg/mL): 49 Milli O.D | Test as agonist, Milli O.D at 405 (Ah receptor [2]; Table 11, 2.5 μg/mL): 49.5 Milli O.D | Test as agonist, Milli O.D at 405 (Ah receptor [2]; Table 11, 5 μg/mL): 49.5 Milli O.D | Test as agonist, Milli O.D at 405 (Ah receptor [2]; Table 11, 10 μg/mL): 50 Milli O.D | Test as antagonist, Milli O.D at 405 (Ah receptor [3]; Table 11, 0.313 μg/mL): 1493 Milli O.D | Test as antagonist, Milli O.D at 405 (Ah receptor [3]; Table 11, 0.625 μg/mL): 1444 Milli O.D | Test as antagonist, Milli O.D at 405 (Ah receptor [3]; Table 11, 1.25 μg/mL): 1438 Milli O.D | Test as antagonist, Milli O.D at 405 (Ah receptor [3]; Table 11, 2.5 μg/mL): 1462 Milli O.D | Test as antagonist, Milli O.D at 405 (Ah receptor [3]; Table 11, 5 μg/mL): 1423 Milli O.D | Test as antagonist, Milli O.D at 405 (Ah receptor [3]; Table 11, 10 μg/mL): 1143 Milli O.D | binding or interaction with the Ah receptor (words) (Ah receptor [3]): non-Ah receptor binding
SMILES: CC1(C)CC[C@]2(C(=O)O)CC[C@]3(C)C(=CC[C@@H]4[C@@]5(C)CC[C@H](O)C(C)(C)[C@@H]5CC[C@]43C)[C@@H]2C1 [Oleanolic Acid]

Reference: patent US5833994A, “Use of the AH receptor and AH receptor ligands to treat or prevent cytopathicity of viral infection” (Paracelsian, Inc., priority 1997, dated 1998)
